Data as given in US6914045B2, “Glycopeptide antibiotics” (Wyeth Holdings Corporation, priority 2001, dated 2005).
Values after ≈ are worked out from the molar mass of the structure shown. One block for each molecule: values may come before it.

Experiments:
Experiment in all cases: in vitro antibacterial evaluation, MIC by broth dilution
Format in all cases: cell-based
[1] = system: Escherichia coli; settings: 18 hours at 35° C.
[2] = system: Streptococcus sp.; settings: broth dilution, 18 hours at 35° C.
Description: (§1) Methods for in vitro Antibacterial Evaluation (Table 1)
(§2) The minimum inhibitory concentration (MIC), the lowest concentration of the antibiotic which inhibits growth of the test organism, is determined by the broth dilution method using Muller-Hinton II […] (Baltimore Biological Laboratories) following the recommendations of the National Committee for Clinical Laboratory Standards [Methods for dilution antimicrobial susceptibility tests for bacteria that grow aerobically, approved standard M7-A2, National Committee for Clinical Laboratory Standards, Villanova, Pa.].
(§3) An inoculum level of 5×10^5 CFU/mL, and a range of antibiotic concentrations (64-0.06 μg/mL) is used. […] The test organisms include a spectrum of Gram-positive bacteria comprised of Staphylococcus sp., Streptococcus sp. and Enterococcus sp. These organisms include recent clinical isolates that are resistant to methicillin, penicillin and/or vancomycin.

[3] = system: Staphylococcus sp.; settings: broth dilution, 18 hours at 35° C.; for MIC Staphylococcus aureus (GC 1131): strain GC 1131; for MIC Staphylococcus aureus (ATCC 29213): strain ATCC 29213; for MIC Staphylococcus aureus (GC 3051): strain GC 3051; for MIC Staphylococcus aureus (GC 3053): strain GC 3053; for MIC Staphylococcus aureus (GC 4541): strain GC 4541; for MIC Staphylococcus aureus (GC 4542): strain GC 4542; for MIC Staphylococcus aureus-SMITH (GC 4543): strain GC 4543; for MIC Staphylococcus aureus (GC 4544): strain GC 4544; for MIC Staphylococcus aureus (GC 4545): strain GC 4545; for MIC Staphylococcus haemolyticus (GC 4546): strain GC 4546; for MIC Coagulase Negative Staphylococcus (GC 4547): strain GC 4547; for MIC Coagulase Negative Staphylococcus (GC 4548): strain GC 4548; for MIC Coagulase Negative Staphylococcus (GC 4549): strain GC 4549; for MIC Coagulase Negative Staphylococcus (GC 4551): strain GC 4551; for MIC Coagulase Negative Staphylococcus (GC 6257): strain GC 6257
Description: as §1, §2, §3

[4] = system: Enterococcus sp.; settings: broth dilution, 18 hours at 35° C.
Description: as §1, §2, §3

MIC Escherichia coli (ATCC 25922) [1]: 64 µg/mL (≈ 42.4 µM)
MIC Escherichia coli (GC 4559) [1]: 64 µg/mL (≈ 42.4 µM)
MIC Escherichia coli (GC 4560) [1]: 8 µg/mL (≈ 5.3 µM)
MIC Streptococcus agalactiae (GC 4564) [2]: >64 µg/mL
MIC Streptococcus pneumoniae (ATCC 6301) [2]: 64 µg/mL (≈ 42.4 µM)
MIC Streptococcus pneumoniae (GC 1894) [2]: 64 µg/mL (≈ 42.4 µM)
MIC Streptococcus pneumoniae (GC 4565) [2]: 64 µg/mL (≈ 42.4 µM)
MIC Streptococcus pyogenes (GC 4563) [2]: 32 µg/mL (≈ 21.2 µM)
MIC Streptococcus pneumoniae (ATCC 6301) ([2]; inoculum 5×10^5 CFU/mL, strain ATCC 6301): 64 µg/mL (≈ 42.4 µM)
MIC Streptococcus pneumoniae (GC 1894) ([2]; inoculum 5×10^5 CFU/mL, strain GC 1894): 64 µg/mL (≈ 42.4 µM)
MIC Streptococcus pyogenes (GC 4563) ([2]; inoculum 5×10^5 CFU/mL, strain GC 4563): 32 µg/mL (≈ 21.2 µM)
MIC Streptococcus agalactiae (GC 4564) ([2]; inoculum 5×10^5 CFU/mL, strain GC 4564): >64 µg/mL
MIC Streptococcus pneumoniae (GC 4565) ([2]; inoculum 5×10^5 CFU/mL, strain GC 4565): 64 µg/mL (≈ 42.4 µM)
MIC Staphylococcus aureus (GC 1131) ([3]; inoculum 5×10^5 CFU/mL): >64 µg/mL
MIC Staphylococcus aureus (ATCC 29213) [3]: >64 µg/mL
MIC Staphylococcus aureus (GC 1131) [3]: >64 µg/mL
MIC Staphylococcus aureus (GC 3051) [3]: >64 µg/mL
MIC Staphylococcus aureus (GC 3053) [3]: >64 µg/mL
MIC Staphylococcus aureus (GC 4541) [3]: 64 µg/mL (≈ 42.4 µM)
MIC Staphylococcus aureus (GC 4542) [3]: >64 µg/mL
MIC Staphylococcus aureus-SMITH (GC 4543) [3]: >64 µg/mL
MIC Staphylococcus aureus (GC 4544) [3]: >64 µg/mL
MIC Staphylococcus aureus (GC 4545) [3]: 64 µg/mL (≈ 42.4 µM)
MIC Coagulase Negative Staphylococcus (GC 4547) [3]: 32 µg/mL (≈ 21.2 µM)
MIC Coagulase Negative Staphylococcus (GC 4548) [3]: 64 µg/mL (≈ 42.4 µM)
MIC Coagulase Negative Staphylococcus (GC 4549) [3]: 64 µg/mL (≈ 42.4 µM)
MIC Coagulase Negative Staphylococcus (GC 4551) [3]: >64 µg/mL
MIC Coagulase Negative Staphylococcus (GC 6257) [3]: 64 µg/mL (≈ 42.4 µM)
MIC Enterococcus avium (GC 4558) [4]: 32 µg/mL (≈ 21.2 µM)
MIC Enterococcus faecalis (ATCC 29212) [4]: >64 µg/mL
MIC Enterococcus faecalis (GC 2242) [4]: >64 µg/mL
MIC Enterococcus faecalis (GC 2691) [4]: >64 µg/mL
MIC Enterococcus faecalis (GC 3059) [4]: >64 µg/mL
MIC Enterococcus faecalis (GC 4552) [4]: >64 µg/mL
MIC Enterococcus faecalis (GC 4553) [4]: 64 µg/mL (≈ 42.4 µM)
MIC Enterococcus faecalis (GC 4554) [4]: >64 µg/mL
MIC Enterococcus faecalis (GC 6189) [4]: >64 µg/mL
MIC Enterococcus faecium (GC 2243) [4]: 64 µg/mL (≈ 42.4 µM)
MIC Enterococcus faecium (GC 4556) [4]: >64 µg/mL
MIC Enterococcus faecium (GC 4557) [4]: 8 µg/mL (≈ 5.3 µM)
MIC Enterococcus faecalis (ATCC 29212) ([4]; inoculum 5×10^5 CFU/mL, strain ATCC 29212): >64 µg/mL
MIC Enterococcus faecalis (GC 2242) ([4]; inoculum 5×10^5 CFU/mL, strain GC 2242): >64 µg/mL
MIC Enterococcus faecium (GC 2243) ([4]; inoculum 5×10^5 CFU/mL, strain GC 2243): 64 µg/mL (≈ 42.4 µM)
MIC Enterococcus faecalis (GC 2691) ([4]; inoculum 5×10^5 CFU/mL, strain GC 2691): >64 µg/mL
MIC Enterococcus faecalis (GC 3059) ([4]; inoculum 5×10^5 CFU/mL, strain GC 3059): >64 µg/mL
MIC Enterococcus faecalis (GC 4552) ([4]; inoculum 5×10^5 CFU/mL, strain GC 4552): >64 µg/mL
MIC Enterococcus faecalis (GC 4553) ([4]; inoculum 5×10^5 CFU/mL, strain GC 4553): 64 µg/mL (≈ 42.4 µM)
MIC Enterococcus faecalis (GC 4554) ([4]; inoculum 5×10^5 CFU/mL, strain GC 4554): >64 µg/mL
MIC Enterococcus faecium (GC 4556) ([4]; inoculum 5×10^5 CFU/mL, strain GC 4556): >64 µg/mL
MIC Enterococcus faecium (GC 4557) ([4]; inoculum 5×10^5 CFU/mL, strain GC 4557): 8 µg/mL (≈ 5.3 µM)
MIC Enterococcus avium (GC 4558) ([4]; inoculum 5×10^5 CFU/mL, strain GC 4558): 32 µg/mL (≈ 21.2 µM)
MIC Enterococcus faecalis (GC 6189) ([4]; inoculum 5×10^5 CFU/mL, strain GC 6189): >64 µg/mL
SMILES: CC(c1ccccc1)C1NC(=O)CNC(=O)C(CO)NC(=O)C(C(O)C2CNC(=N)N2C2OC(CO)C(O)C(O)C2O)NC(=O)C(C(O)C2CNC(=N)N2)NC(=O)C(Cc2ccc(OC3OC(CO)C(OC4OC5COC(c6ccccc6)OC5C(O)C4O)C(O)C3O)c(I)c2)NC1=O (stereo not shown) [Example 196]
MIC Staphylococcus haemolyticus (GC 4546) [3]: 32 µg/mL (≈ 21.2 µM)

MIC Escherichia coli (ATCC 25922) ([1]; strain ATCC 25922, broth dilution): 64 µg/mL (≈ 55.1 µM)
MIC Escherichia coli (GC 4559) ([1]; strain GC 4559, broth dilution): 64 µg/mL (≈ 55.1 µM)
MIC Escherichia coli (GC 4560) ([1]; strain GC 4560, broth dilution): 16 µg/mL (≈ 13.8 µM)
MIC Streptococcus pneumoniae (ATCC 6301) ([2]; strain ATCC 6301): 32 µg/mL (≈ 27.5 µM)
MIC Streptococcus pneumoniae (GC 1894) ([2]; strain GC 1894): 16 µg/mL (≈ 13.8 µM)
MIC Streptococcus pyogenes (GC 4563) ([2]; strain GC 4563): 8 µg/mL (≈ 6.88 µM)
MIC Streptococcus agalactiae (GC 4564) ([2]; strain GC 4564): 32 µg/mL (≈ 27.5 µM)
MIC Streptococcus pneumoniae (GC 4565) ([2]; strain GC 4565): 32 µg/mL (≈ 27.5 µM)
MIC Staphylococcus aureus (ATCC 29213) [3]: 32 µg/mL (≈ 27.5 µM)
MIC Staphylococcus aureus (GC 1131) [3]: 32 µg/mL (≈ 27.5 µM)
MIC Staphylococcus aureus (GC 3051) [3]: 16 µg/mL (≈ 13.8 µM)
MIC Staphylococcus aureus (GC 3053) [3]: 32 µg/mL (≈ 27.5 µM)
MIC Staphylococcus aureus (GC 4541) [3]: 32 µg/mL (≈ 27.5 µM)
MIC Staphylococcus aureus (GC 4542) [3]: 32 µg/mL (≈ 27.5 µM)
MIC Staphylococcus aureus-SMITH (GC 4543) [3]: 16 µg/mL (≈ 13.8 µM)
MIC Staphylococcus aureus (GC 4544) [3]: 16 µg/mL (≈ 13.8 µM)
MIC Staphylococcus aureus (GC 4545) [3]: 32 µg/mL (≈ 27.5 µM)
MIC Coagulase Negative Staphylococcus (GC 4547) [3]: 16 µg/mL (≈ 13.8 µM)
MIC Coagulase Negative Staphylococcus (GC 4548) [3]: 16 µg/mL (≈ 13.8 µM)
MIC Coagulase Negative Staphylococcus (GC 4549) [3]: 4 µg/mL (≈ 3.44 µM)
MIC Coagulase Negative Staphylococcus (GC 4551) [3]: 32 µg/mL (≈ 27.5 µM)
MIC Coagulase Negative Staphylococcus (GC 6257) [3]: 8 µg/mL (≈ 6.88 µM)
MIC Enterococcus faecalis (ATCC 29212) ([4]; strain ATCC 29212): 64 µg/mL (≈ 55.1 µM)
MIC Enterococcus faecalis (GC 2242) ([4]; strain GC 2242): 32 µg/mL (≈ 27.5 µM)
MIC Enterococcus faecium (GC 2243) ([4]; strain GC 2243): 32 µg/mL (≈ 27.5 µM)
MIC Enterococcus faecalis (GC 2691) ([4]; strain GC 2691): 32 µg/mL (≈ 27.5 µM)
MIC Enterococcus faecalis (GC 3059) ([4]; strain GC 3059): 32 µg/mL (≈ 27.5 µM)
MIC Enterococcus faecalis (GC 4552) ([4]; strain GC 4552): 32 µg/mL (≈ 27.5 µM)
MIC Enterococcus faecalis (GC 4553) ([4]; strain GC 4553): 32 µg/mL (≈ 27.5 µM)
MIC Enterococcus faecalis (GC 4554) ([4]; strain GC 4554): 32 µg/mL (≈ 27.5 µM)
MIC Enterococcus faecium (GC 4556) ([4]; strain GC 4556): 64 µg/mL (≈ 55.1 µM)
MIC Enterococcus faecium (GC 4557) ([4]; strain GC 4557): 8 µg/mL (≈ 6.88 µM)
MIC Enterococcus avium (GC 4558) ([4]; strain GC 4558): 16 µg/mL (≈ 13.8 µM)
MIC Enterococcus faecalis (GC 6189) ([4]; strain GC 6189): 64 µg/mL (≈ 55.1 µM)
SMILES: COc1cc(-c2nc3cc(CC4NC(=O)C(C(C)c5ccccc5)NC(=O)CNC(=O)C(CO)NC(=O)C(C(O)C5CNC(=N)N5C5OC(CO)C(O)C(O)C5O)NC(=O)C(C(O)C5CNC(=N)N5)NC4=O)ccc3o2)cc(OC)c1OC (stereo not drawn) [Example 34, Cyclo[3-[2-(3,4,5-trimethoxyphenyl)-1,3-benzoxazol-5-yl]alanyl-3-(2-iminoimidazolidin-4-yl)seryl-3-(3-hexopyranosyl-2-iminoimidazolidin-4-yl)serylserylglycyl-β-methylphenyl-alanyl]]
MIC Staphylococcus haemolyticus (GC 4546) [3]: 8 µg/mL (≈ 6.88 µM)
